From patent publication US10555965B2, “Environment-responsive hyaluronic acid nanoparticles” (Industry-University Cooperation Foundation Hanyang …, priority 2015, dated 2020)

Experiments:
HepG2 cells = assay: Apoptosis/necrosis by flow cytometry (Annexin-V-FITC/PI); type: cell-based; conditions: 12 hours treatment, nanoparticles 1 mg/mL or 2DG 0.25 mg/mL
Experimental: The 2-deoxy-D-glucose was used as a glycolytic inhibitor. The ATP content was measured using an ATP Colorimetric/Fluorometric Assay Kit (Biovision). Lactate secretion was quantified using an EnzyChromTM L-Lactate Assay Kit (Bioassay). In cell fate, an effect of the HA-PBA nanoparticles on the inhibition of glycolysis was examined using a flow cytometer (BD FACS Caliber). Briefly, the HepG2 cells were treated with the HA-PBA nanoparticles or 2DG for 12 hours. An Annexin-V-FITC antibody and propidium iodide (PI) were used as markers for apoptotic and necrotic cell death. The HepG2 cells were seeded in a 24-well tissue culture plate at a density of 1×10^4 cells/well, and incubated at 37° C. for 24 hours under 5% CO2 conditions. The cells were washed with PBS, and treated for 8 hours with a low or high glucose medium including the HA-PBA nanoparticles (1 mg/mL) having a degree of […]. Also, prior to treatment with the HA-PBA nanoparticles, the cells were pretreated with a hyaluronate (2.5 mg/mL) dissolved in a low glucose medium. The medium was replaced with a fresh medium daily. At a predetermined point of time, the cells were treated with EZ-Cytox for 2 hours, and the optical density at 450 nm was measured using a UV/VIS spectrophotometer. The growth rate of the cells was calculated from a change in the number of the cells in 3 days of incubation. […]

HepG2 tumor = assay: In vivo therapeutic effect (liver cancer growth inhibition); set-up: species or system mice; conditions: intravenous, 5 times for a week, monitored 17 days
Experimental: To evaluate a therapeutic effect of the HA-PBA nanoparticles, the tumor-bearing mouse model of Experimental Example 7 was prepared.
The HA-PBA nanoparticles (20 mg kg), paclitaxel (10 mg/kg), and PBS were intravenously injected into the caudal veins of the tumor-bearing mice (injected 5 times for a week). Changes in tumor volume were monitored for 2 weeks (n=7). Tumor tissues were extracted from the mice, and embedded into an optimal cutting temperature (OCT) compound. The tumor tissues were cut into sections (12 μm thick), and stained with hematoxylin and eosin (H&E) and a DeadEnd™ colorimetric TUNEL system (Promega, USA).
When the tumor volumes of the mice reached approximately 90 mm3, the HA-PBA nanoparticles, paclitaxel, and PBS were injected into the mice.

## O=CC[C@@H](O)[C@H](O)[C@H](O)CO [2DG, 2-deoxy-D-glucose]
HepG2 cells; control 5.77%
  in-late apoptotic HepG2 cells: 4.65%
HepG2 cells; control 6.76%
  apoptotic HepG2 cells: 18.81%

## CC(=O)O[C@H]1C(=O)[C@@]2(C)[C@H]([C@H](OC(=O)c3ccccc3)[C@]3(O)C[C@H](OC(=O)[C@H](O)[C@@H](NC(=O)c4ccccc4)c4ccccc4)C(C)=C1C3(C)C)[C@]1(OC(C)=O)CO[C@@H]1C[C@@H]2O [paclitaxel]
HepG2 tumor
  weight loss: No weight loss
HepG2 tumor; nanoparticles 20 mg kg, paclitaxel 10 mg/kg
  tumor growth rate compared to PBS-treated group: inhibited tumor growth rate
